Assay results from ChEMBL document CHEMBL3244158, “Dimerization of coralyne and its propyl analogue and their association with DNA” (J Med Chem, 1979).
Activity calls are given as the source filed them. The rule behind the calls is not given here.

Tested on: Calf thymus DNA
Assay: Binding affinity to calf thymus DNA at 0.033 to 0.995 ligand to DNA ratio by spectrophotometer analysis
Assay type: nucleic-acid assay
Settings: Bos taurus

Compound | Activity
CCCc1c2cc(OC)c(OC)cc2cc2c3cc(OC)c(OC)cc3cc[n+]12 | Active
COc1cc2cc3c4cc(OC)c(OC)cc4cc[n+]3c(C)c2cc1OC | Active
